# Test results as given in US10058563B2, “System and method for diagnosis and treatment” (Pop Test Oncology Limited Liability Company, priority 2011, dated 2018).
# Read-outs that look alike come from different tables or passages of the source.
# Assays:
# [1] = test system: mineralocorticoid, progesterone, estrogen and androgen receptors; details: such as those for estrogen and progesterone; cited from earlier work
# [2] = test system: ER-GR+ human breast cancer cells; test: Tumor volume in mice implanted with ER-GR+ breast cancer cells (Example 2); assay type: in vivo; details: i.p. vehicle alone vs Paclitaxel alone vs Paclitaxel and ORG 34517; 3 mice per group
# Description: As tumor volume in each mouse approached the test threshold of 200 mm3, the mice were randomized to receive intraperitoneal injections of vehicle alone, chemotherapy (Paclitaxel) alone, and chemotherapy and ORG 34517. Each group contained 3 mice.
# Mice were implanted with cultured ER-GR+ human breast cancer cells. As tumor volume in each mouse approached the test threshold of 200 mm3, the mice were randomized to receive intraperitoneal injections of vehicle alone, chemotherapy (Paclitaxel) alone, and chemotherapy and ORG 34517. Each group contained 3 mice.
# [3] = disclosed in U.S. Pat. No. 6,011,025; cited from earlier work
# [4] = all phase I and phase II clinical trials performed with the compound; cited from earlier work
# [5] = test system: TNBC (Triple Negative Breast Cancer; MDA-MB-231) cells; test: Xenografted breast tumor growth, ORG 34517 plus Taxol (Example 1); assay type: in vivo, CB-17 SCID mice; details: for relative tumor growth: N=3, control Veh/Veh 379%
# Description: This study is performed to obtain evidence for enhancement of chemotherapy sensitivity of GR+/ER−/PR−/Her2-neu− breast cancer cells by blocking stress-mediated cell survival pathways with a GR antagonist. In the present pilot study, the GR antagonist ORG 34517, is investigated, in one dose, in combination with the chemotherapeutic agent Taxol. Both the Taxol and ORG 34517 doses are selected based on previous experiments.
# Materials and Methods—1×107 TNBC (Triple Negative Breast Cancer; MDA-MB-231) cells in 50 ul of PBS (phosphate buffered saline) are injected into the mammary fat pad of 4-5 week old CB-17 SCID mice (Taconic Labs). The mice are allowed to form xenografted breast tumors of approximately 200 mm3 volume. When tumors reach an average of 200 mm3 (Week “0”), 15 mice are separated into the 3 treatment groups 1) vehicle, 2) paclitaxel (Taxol), 3) ORG 34517+ paclitaxel. The used paclitaxel dose is 10 mg/kg/day dissolved in Ethanol/Sesame Oil; ORG 34517 is administered in the maximum soluble dose of 20.5 mg/kg/day dissolved in Ethanol/Castor Oil. The mice receive intraperitoneal injections (200 ul) of drugs for 5 consecutive days (day 1-5). Tumors are measured three times per week. Tumor size is both expressed as absolute volume and as relative growth in comparison to baseline (day 0).
# Results—Treatment of the animals is started when the tumor has a volume of at least 100 mm3. The total experimental group consisted of 15 animals. In 6 animals the tumor growth was considered not sufficient. […] In the control situation the tumor grows within 13 days with about 800 mm3 (see raw data). To correct for baseline differences, for each animal the relative tumor growth is calculated. Relative growth is defined as (tumor size day x−tumor size day 0)/tumor size day 0. Group averages for the relative tumor growth are depicted in FIG. 1. In the control condition (VehlVeh) the relative growth is 379%. […] A further reduction of the growth is induced by the addition of ORG 34517 (517/Taxo). The relative growth of this latter group is 100%.
# A repeated measures ANOVA did reveal a significant time-effect (F5,36)=2.73; p=0.035), a significant treatment effect (F(2,36)=26.86; p=0.000) and a significant interaction (F(10,36)=2.36; p=0.029). […] This statistical analysis should be considered explorative because of the pilot nature of the study.
# [6] = Solubility in different solvents; assay type: physicochemical
# Description: The solubility of (11β,17β)-11-(1,3-benzodioxol-5-yl)-17-hydroxy-17-(1-propynyl)estra-4,9-dien-3-one is determined in different solvents. These solutions can be of use for clinical treatment with the advantages as mentioned above.
# [7] = Behaviour in conventional dosage forms (capsule or tablet); assay type: in vivo; details: like a capsule or a tablet
# Description: Another dosage form than a conventional tablet or capsule may be able to circumvent these issues.
# glucocorticoid receptor = biological target: T1, glucocorticoid receptor (Homo sapiens, UniProt P04150); details: disclosed in U.S. Pat. No. 6,011,025; cited from earlier work
# T1 sequence (P04150 1-777): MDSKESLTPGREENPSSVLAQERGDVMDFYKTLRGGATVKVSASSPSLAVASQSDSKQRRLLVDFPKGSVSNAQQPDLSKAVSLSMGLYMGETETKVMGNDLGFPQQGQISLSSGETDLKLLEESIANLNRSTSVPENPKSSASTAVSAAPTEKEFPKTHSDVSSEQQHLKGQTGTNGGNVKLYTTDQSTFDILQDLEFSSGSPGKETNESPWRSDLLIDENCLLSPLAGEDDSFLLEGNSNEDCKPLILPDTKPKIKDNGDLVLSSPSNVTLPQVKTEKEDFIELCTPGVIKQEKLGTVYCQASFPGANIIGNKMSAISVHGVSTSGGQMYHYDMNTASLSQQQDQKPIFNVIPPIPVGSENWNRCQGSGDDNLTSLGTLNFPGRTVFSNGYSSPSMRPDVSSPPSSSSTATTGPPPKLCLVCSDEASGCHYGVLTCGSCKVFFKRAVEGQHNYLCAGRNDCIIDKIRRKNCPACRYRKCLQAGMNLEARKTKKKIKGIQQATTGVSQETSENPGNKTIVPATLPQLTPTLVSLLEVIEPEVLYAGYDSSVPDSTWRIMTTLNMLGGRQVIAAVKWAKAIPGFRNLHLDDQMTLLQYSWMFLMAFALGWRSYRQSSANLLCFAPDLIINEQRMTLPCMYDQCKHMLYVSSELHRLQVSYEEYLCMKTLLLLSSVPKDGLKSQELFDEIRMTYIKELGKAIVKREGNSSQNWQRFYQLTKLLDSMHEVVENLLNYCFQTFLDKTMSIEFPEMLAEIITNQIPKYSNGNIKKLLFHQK
structure (smiles),measurement,setting,value
"CC#C[C@]1(O)CC[C@H]2[C@@H]3CCC4=CC(=O)CCC4=C3[C@@H](c3ccc4c(c3)OCO4)C[C@@]21C [ORG 34517, (11β,17β)-11-(1,3-benzodioxol-5-yl)-17-hydroxy-17-(1-propynyl) estra-4,9-dien-3-one]",cross-binding to other related steroidal hormone receptors,[1],without significant cross-binding
same,attained tumor volume,[2],significant differences in attained tumor volume
same,androgenic and progestagenic activities,[3],low
same,significant toxicities and side effects,[4],none were identified
same,tumor growth in comparison to Veh/Taxo treatment,"[5]; 517/Taxo, all three animals, individual scores",decreased tumor growth
same,relative tumor growth,[5]; ORG 34517 20.5 mg/kg/day + Taxol 10 mg/kg/day i.p. day 1-5 (517/Taxo),100%
same,animals with tumor shrinkage during treatment,[5]; ORG 34517 20.5 mg/kg/day + Taxol 10 mg/kg/day i.p. for 5 days,2 out of 3
same,effect on the chemotherapeutic effect of Taxol,[5]; ORG 34517 i.p. 20.5 mg/kg/day for 5 days,potentiated the chemotherapeutic effect of Taxol
same,solubility,[6]; Arachis oil,2.46 mg/g
same,solubility,[6]; Benzylalcohol,390 mg/g
same,solubility,[6]; Castor oil,7.38 mg/g
same,solubility,[6]; Castor oil:benzylbenzoate (90:10),15.0 mg/g
same,solubility,[6]; Castor oil:propylene glycol laurate (0.55:0.45; v:v),9.4 mg/g
same,solubility,[6]; Corn oil,2.58 mg/g
same,solubility,[6]; Cremophor EL,23 mg/g
same,solubility,"[6]; Gelicure 44/14, oil or lipid, read-out: Solubility",100000 µg/mL
same,solubility,"[6]; Glucofurol:water (50:50), aqueous with cosolvent or surfactant or cyclodextrin, read-out: Solubility",700 µg/mL
same,solubility,"[6]; Glycoferol, organic solvent or mixture, read-out: Solubility",118000 µg/mL
same,solubility,"[6]; HPβCD, 10% in water, aqueous with cosolvent or surfactant or cyclodextrin, read-out: Solubility",207 µg/mL
same,solubility,"[6]; HPβCD, 20% in water, aqueous with cosolvent or surfactant or cyclodextrin, read-out: Solubility",395 µg/mL
same,solubility,"[6]; HPβCD, 40% in water, aqueous with cosolvent or surfactant or cyclodextrin, read-out: Solubility",800 µg/mL
same,solubility,[6]; Medium Chain monoglyceride/glycerol monocaprylate,28 mg/g
same,solubility,[6]; Miglyol 812,4.5 mg/g
same,solubility,"[6]; Mulgofen:water (5:95), aqueous with cosolvent or surfactant or cyclodextrin, read-out: Solubility",2000 µg/mL
same,solubility,[6]; Olive oil,2.26 mg/g
same,solubility,"[6]; PEG 400, organic solvent or mixture, read-out: Solubility",34400 µg/mL
same,solubility,"[6]; PEG 400:water (60:40), aqueous with cosolvent or surfactant or cyclodextrin, read-out: Solubility",0.6 µg/mL
same,solubility,"[6]; PEG 1500, organic solvent or mixture, read-out: Solubility",37000 µg/mL
same,solubility,[6]; Polysorbate in water (0.5%),<LOD
same,solubility,[6]; Soy oil,2.70 mg/g
same,solubility,[6]; Span 80,7 mg/g
same,solubility,"[6]; TPGS:PEG 400:propyleneglycol (12:17:55), organic solvent or mixture, read-out: Solubility",700 µg/mL
same,solubility,"[6]; TPGS:PEG 400:propyleneglycol (20:60:5), organic solvent or mixture, read-out: Solubility",900 µg/mL
same,solubility,"[6]; acetone, organic solvent or mixture, read-out: Solubility",> 10000 µg/mL
same,solubility,"[6]; acetonitrile, organic solvent or mixture, read-out: Solubility",> 10000 µg/mL
same,solubility,"[6]; aqueous with cosolvent or surfactant or cyclodextrin, TPGS:d-Alpha Tocopheryl Polyethylene Glycol 1000 Succinate (20%, as delivered), read-out: Solubility",1100 µg/mL
same,solubility,"[6]; dimethylsulfoxide, organic solvent or mixture, read-out: Solubility",> 100000 µg/mL
same,solubility,"[6]; dog bile:phosphate buffer (1:1), plasma or biological fluid, Dog bile:phosphate buffer (pH = 6.5) (1:1), read-out: Solubility",~80 µg/mL
same,solubility,"[6]; ethanol, organic solvent or mixture, read-out: Solubility",> 10000 µg/mL
same,solubility,"[6]; ethanol:PEG 400:propylene glycol (10:50:40), organic solvent or mixture, read-out: Solubility",28600 µg/mL
same,solubility,"[6]; ethanol:PEG 400:propylene glycol:water (10:40:40:10), aqueous with cosolvent or surfactant or cyclodextrin, read-out: Solubility",14000 µg/mL
same,solubility,"[6]; methanol, organic solvent or mixture, read-out: Solubility",> 10000 µg/mL
same,solubility,"[6]; propylene glycol, organic solvent or mixture, read-out: Solubility",8900 µg/mL
same,solubility,"[6]; water with sodium lauryl sulphate 0.5% w/v, aqueous with cosolvent or surfactant or cyclodextrin, Water-Sodium lauryl sulphate (0.5% w/v), read-out: Solubility",240 µg/mL
same,solubility,"[6]; water with sodium lauryl sulphate 1.0% w/v, aqueous with cosolvent or surfactant or cyclodextrin, Water-Sodium lauryl sulphate (1.0% w/v), read-out: Solubility",377 µg/mL
same,solubility,"[6]; water, read-out: Solubility",3 µg/mL
same,exposure behaviour,[7],"low exposure, high dose variability, large food effect and non-dose linearity"
same,glucocorticoid receptor binding affinity,glucocorticoid receptor,high
"CC(=O)O[C@H]1C(=O)[C@@]2(C)[C@H]([C@H](OC(=O)c3ccccc3)[C@]3(O)C[C@H](OC(=O)[C@H](O)[C@@H](NC(=O)c4ccccc4)c4ccccc4)C(C)=C1C3(C)C)[C@]1(OC(C)=O)CO[C@@H]1C[C@@H]2O [Taxol, paclitaxel, reference compound]",relative tumor growth,[5]; Taxol 10 mg/kg/day i.p. day 1-5 (Veh/Taxo),183%
same,effect on tumor growth,[5]; Taxol injections alone,reduced the tumor growth
